{"source": "patent US5747456A", "about": "“Continuous low-dose administration of parathyroid hormone or its agonist” (Beth Israel Deaconess Medical Center, priority 1996, dated 1998)", "key": {"[1]": {"test_system": "bone growth", "assay": "Continuous infusion of hPTH1-34 in post-menopausal women with osteoporosis (Example 5)", "type": "in vivo, human", "settings": "continuous infusion 25 to 400 units/24 hrs by infusion pump, twelve months", "procedure": "The anabolic efficacy of the PTH/PTHrP agonists are tested in humans (Review in Dempster D. W., et al., Endocrine Rev., 1993, 14, 690-709). To determine if continuous administration of hPTH1-34 or its agonist is effective in promoting bone growth in humans, 30 post-menopausal women with established osteoporosis based on bone-density measurements are selected. A double-blind, placebo-controlled, randomized experiment is conducted where two groups of 15 women each are either placed on placebo treatment or continuous infusion of a defined dose of hPTH1-34 (25 units to 400 units/24 hrs) using an infusion pump.\nThe patients prior to the study are subject to the following: complete health and physical examination, evaluation of the nutritional status (particularly of calcium intake and serum calcium), full analysis of biomarkers for bone-turnover (Riis, B. J., Amer. J. Med. 1993, 95 [Suppl 5A], 17s-21s; Delmas, P. D., Amer. J. Med., […], 91 [Suppl 5B], 59s-63s), radiology, bone mass measurements of vertebral and axial sites (Gerant, H. K., et al., Amer. J. Med., 1991, 91 [Suppl 5B], 49s-53s; Wasnich, R. D., Amer J Med, 1991, 91 [Suppl 5B], 54s-58s) and bone biopsy, to establish the baseline parameters for each individual. […]"}, "[2]": {"test_system": "osteoblast activity", "settings": "intravenous infusion 0.55 U/kg/hr continuously for 24 hours, cited from earlier work"}}, "data": [{"substance": "hPTH1-34: synthetic amino-terminal fragment of PTH1-84 (human parathyroid hormone)", "values": [{"measurement": "bone mass measurements and bone biopsy", "setting": "[1]", "value": "clear indication of bone growth"}, {"measurement": "blood levels of ionized calcium", "setting": "[2]; humans", "value": "increase"}, {"measurement": "serum levels of collagen type I", "setting": "[2]; within 16 hours of infusion, six osteoporotic and two normal subjects", "value": "decreased"}]}]}
